Molecules are shown by their SMILES. Peptide text beside a SMILES is read from it. * marks the point of attachment. Cbz = O=C(OCc1ccccc1)*

We go through one compound from patent publication US9429566B2, “Assay for inhibitors of CIP/KIP protein degradation” (UNIVERSITE DE MONTREAL, priority 2011, dated 2016).

The test system of assay [1] is p21-Rluc fusion protein. In words: High throughput p21 degradation assay (p21-Rluc reporter, cycloheximide). In kind it is cell-based, human. Particulars: MG132 25 μM, set at 100% stabilization.
Assay [2] has as its system endogenous p21 protein. Briefly: p21 ELISA of endogenous p21 protein. In kind it is cell-based. The note with it: dose-response, normalized to DMSO, FIG. 10B. The source says:
Luciferase values are normalized to the control DMSO (set to 1). […] ELISA values are normalized to the control DMSO.
The p21-Rluc degradation assay was next transposed to a HTS-compatible format in 384-well plates and used to screen the Institut de Recherche en Immunologie et Cancerologie's (IRIC's) collection of 112,900 compounds (FIG. 6) derived from the Chembridge DIVERset™ screening library, the Maybridge Hitfinder™ screening library, the Specs screening library, the Microsource […]™ collection, the Biomol/Enzo Life Sciences Screen-Well™ library, the Prestwick Chemical Library™ library and the Sigma LOPAC^1280™. The potent proteasome inhibitor MG-132 was used as positive control. The mean increase of p21-Rluc signal by all positive controls across the screen was 3.062 (FIG. 6). This value was set at 100% stabilization and used as comparison reference for test compounds. From the primary screen, 686 compounds that increase the p21-Rluc luminescence signal by at least 1.7-fold and 4 SDs above baseline (DMSO control) were identified (FIG. 5). These compounds were re-tested in a reconfirmation experiment using the same assay conditions. […] Confirmed hits were then tested in a secondary assay using Rluc alone to eliminate compounds that increase luciferase enzymatic activity or boost the luminescence signal. […]
In general terms: ELISA stands for enzyme-linked immunosorbent assay.

For `CC(C)C[C@@H](C=O)NC(=O)[C@H](CC(C)C)NC(=O)[C@H](CC(C)C)NC(=O)OCc1ccccc1` [MG-132] (Cbz-Leu-Leu-Leu-aldehyde), the “mean increase of p21-Rluc signal by all positive controls across the screen” value in assay [1] is given as 3.062. Also, in assay [2], the “intracellular expression of endogenous p21 protein (ELISA)” value is on record as “increase in the intracellular expression of the endogenous protein”.
